Assay results as given in patent US11884671B2, “Purinone compounds and their use in treating cancer” (ASTRAZENECA AB, priority 2018, dated 2024).

Legend:
[1] = target: DNAPK (Homo sapiens (Human), UniProt P78527); experiment: DNAPK cellular potency assay (DNA-PK cell), pS2056-DNAPK ELISA in irradiated A549 cells; assay type: cell-based; settings: 8 Gy radiation, arithmetic mean of two or more experiments, read-out: DNA-PK cell pIC50 (converted)
Method: The DNAPK cell ELISA assay was performed in the A549 cell line. A549 cells were cultured in cell media composed of MEM-F12 (Minimum Essential Medium F12 Sigma #D6421), 10% (v/v) Foetal Calf Serum and 1% (v/v) 200 mM L-Glutamine. […] The following day the Greiner ELISA plates were washed 3× with PBS-T and blocked with 3% BSA/PBS for 2 h, before a further 3× wash with PBS-T.
The cell plates were then incubated for 1 h at 37° C. before receiving a radiation dose of 8 Gy (XRAD 320, table height 65). The cells were incubated for a further 1 h before removal of cell media. […] Cell lysates ([…]) were transferred to the DNAPK antibody-coated ELISA plates using a CyBio Felix liquid handling platform, and ELISA plates were incubated at 4° C. overnight.
The following day, ELISA plates were washed 3× with PBS-T and dispensed with in-house pS2056-DNAPK antibody (0.5 μg/mL in 3% BSA/PBS) at 20 ul/well.
The fluorescence intensity of individual wells was determined using a PerkinElmer EnVision plate reader.
Data was analysed and IC50 values were calculated using Genedata Screener® software (Genedata, Inc., Basel, Switzerland).

[2] = target: JAK3 (Homo sapiens (Human), UniProt P52333); experiment: JAK3 enzyme assay (Z'-LYTE); assay type: biochemical; settings: 10 μM ATP; arithmetic mean of two or more experiments
JAK3, sequence (P52333 whole entry): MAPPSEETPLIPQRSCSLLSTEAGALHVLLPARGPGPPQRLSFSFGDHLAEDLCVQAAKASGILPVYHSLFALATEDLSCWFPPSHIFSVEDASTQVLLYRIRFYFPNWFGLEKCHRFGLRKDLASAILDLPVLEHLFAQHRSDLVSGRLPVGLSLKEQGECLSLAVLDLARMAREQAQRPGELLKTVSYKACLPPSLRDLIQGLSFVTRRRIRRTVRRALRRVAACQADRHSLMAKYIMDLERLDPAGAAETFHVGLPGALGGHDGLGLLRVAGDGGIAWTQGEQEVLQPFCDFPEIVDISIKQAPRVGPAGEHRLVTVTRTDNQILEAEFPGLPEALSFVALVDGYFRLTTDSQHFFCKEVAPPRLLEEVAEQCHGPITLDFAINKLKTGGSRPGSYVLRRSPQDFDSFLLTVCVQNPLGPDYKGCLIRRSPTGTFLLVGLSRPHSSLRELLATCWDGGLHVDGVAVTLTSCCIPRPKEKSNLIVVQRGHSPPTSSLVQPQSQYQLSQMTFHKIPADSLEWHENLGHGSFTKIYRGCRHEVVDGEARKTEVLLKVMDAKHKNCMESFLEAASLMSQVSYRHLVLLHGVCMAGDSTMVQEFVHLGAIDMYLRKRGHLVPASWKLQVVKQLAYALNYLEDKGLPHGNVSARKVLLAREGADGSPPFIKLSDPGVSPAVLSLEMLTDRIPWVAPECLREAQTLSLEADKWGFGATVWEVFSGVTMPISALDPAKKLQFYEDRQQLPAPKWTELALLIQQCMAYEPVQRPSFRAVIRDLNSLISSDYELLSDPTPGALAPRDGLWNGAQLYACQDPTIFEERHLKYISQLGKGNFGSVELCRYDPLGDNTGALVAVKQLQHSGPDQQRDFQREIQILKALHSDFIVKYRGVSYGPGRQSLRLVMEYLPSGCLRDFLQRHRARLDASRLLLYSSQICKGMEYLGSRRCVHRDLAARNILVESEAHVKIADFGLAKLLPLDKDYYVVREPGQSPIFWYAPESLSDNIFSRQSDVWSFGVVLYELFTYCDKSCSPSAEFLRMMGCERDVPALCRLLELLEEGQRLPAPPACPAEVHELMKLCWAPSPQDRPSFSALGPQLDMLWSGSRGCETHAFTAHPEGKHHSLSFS
Method: (§1) The inhibitory activity of compounds against AURKA, AURKB, JAK1, JAK2 and JAK3 was determined in Z′-LYTE® assays run by ThermoFisher Scientific as part of their SelectScreen® Biochemical Kinase Profiling Service. The Z′-LYTE® biochemical assay format employs a fluorescence-based, coupled-enzyme format and is based on the differential sensitivity of phosphorylated and non-phosphorylated peptides to proteolytic cleavage. The peptide substrate is labeled with two fluorophores—one at each end—that make up a FRET pair. In the primary reaction, the kinase transfers the gamma-phosphate of ATP to a single tyrosine, serine or threonine residue in a synthetic FRET-peptide. In the secondary reaction, a site-specific protease recognises and cleaves non-phosphorylated FRET-peptides. Phosphorylation of FRET-peptides suppresses cleavage by the Development Reagent. Cleavage disrupts FRET between the donor (i.e., coumarin) and acceptor (i.e., fluorescein) fluorophores on the FRET-peptide, whereas uncleaved, phosphorylated FRET-peptides maintain FRET. A ratiometric method, which calculates the ratio (the Emission Ratio) of donor emission to acceptor emission after excitation of the donor fluorophore at 400 nm, is used to quantitate reaction progress. Both cleaved and uncleaved FRET-peptides contribute to the fluorescence signals and therefore to the Emission Ratio. The extent of phosphorylation of the FRET-peptide can be calculated from the Emission Ratio.
(§2) 10 point three-fold dilution compound concentration-response curves, with a top concentration of 10 μM were generated from 10 mM stocks of compound solubilised in DMSO. All assays were performed in black, non-binding, low volume Corning 384-well plates (cat. #4514, Corning), in a total reaction volume of 10 μL and 1% (v/v) final DMSO concentration. […] The kinase reaction was then quenched by the addition of 5 μL of Development Reagent (ThermoFisher Scientific proprietary). […] IC50 values were calculated using XLfit software (IDBS Ltd, Surrey, UK), with the curve fit to model number 205 (sigmoidal dose-response model).
JAK3: The 2×JAK3/Tyr 06 (ThermoFisher Scientific proprietary) mixture was prepared in 50 mM HEPES pH 7.5. 0.01% BRIJ-35, 10 mM MgCl2, 1 mM EGTA. […] After the 1 hour Kinase Reaction incubation, 5 μL of a 1:128 dilution of Development Reagent was added.

[3] = target: JAK1 (Homo sapiens (Human), UniProt P23458); experiment: JAK1 enzyme assay (Z'-LYTE); assay type: biochemical; settings: 75 μM ATP; arithmetic mean of two or more experiments
JAK1, sequence (P23458 whole entry): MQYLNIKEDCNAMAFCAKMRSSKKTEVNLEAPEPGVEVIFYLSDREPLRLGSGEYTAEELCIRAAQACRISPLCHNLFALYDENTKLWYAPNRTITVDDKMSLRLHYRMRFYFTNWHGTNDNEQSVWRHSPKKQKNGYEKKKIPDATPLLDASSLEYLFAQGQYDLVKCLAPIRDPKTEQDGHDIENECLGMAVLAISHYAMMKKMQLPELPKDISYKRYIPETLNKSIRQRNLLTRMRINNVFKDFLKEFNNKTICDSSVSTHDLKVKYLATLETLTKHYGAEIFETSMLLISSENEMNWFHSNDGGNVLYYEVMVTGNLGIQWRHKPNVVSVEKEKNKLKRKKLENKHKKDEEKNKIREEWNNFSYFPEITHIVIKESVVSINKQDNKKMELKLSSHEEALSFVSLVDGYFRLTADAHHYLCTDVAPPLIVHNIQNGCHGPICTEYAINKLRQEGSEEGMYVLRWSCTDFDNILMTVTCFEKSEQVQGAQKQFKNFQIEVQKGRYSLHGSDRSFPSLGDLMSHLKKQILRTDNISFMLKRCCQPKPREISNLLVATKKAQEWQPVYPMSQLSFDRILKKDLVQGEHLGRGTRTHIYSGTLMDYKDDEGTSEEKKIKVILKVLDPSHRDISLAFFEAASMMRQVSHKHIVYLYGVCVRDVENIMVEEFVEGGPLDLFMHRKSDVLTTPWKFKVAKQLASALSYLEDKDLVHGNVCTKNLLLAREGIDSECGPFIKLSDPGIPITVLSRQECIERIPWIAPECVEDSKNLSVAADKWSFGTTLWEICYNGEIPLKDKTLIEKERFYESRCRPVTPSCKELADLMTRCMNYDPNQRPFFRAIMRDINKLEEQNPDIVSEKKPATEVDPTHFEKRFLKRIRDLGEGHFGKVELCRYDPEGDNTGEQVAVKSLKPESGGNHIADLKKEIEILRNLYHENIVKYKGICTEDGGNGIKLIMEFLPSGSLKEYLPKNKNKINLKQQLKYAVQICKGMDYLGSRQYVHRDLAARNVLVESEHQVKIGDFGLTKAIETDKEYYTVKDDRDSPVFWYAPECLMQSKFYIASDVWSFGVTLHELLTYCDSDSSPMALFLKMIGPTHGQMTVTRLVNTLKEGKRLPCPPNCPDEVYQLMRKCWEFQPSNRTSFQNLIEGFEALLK
Method: as §1, §2
JAK1: The 2×JAK/Tyr 06 (ThermoFisher Scientific proprietary) mixture was prepared in 50 mM HEPES pH 6.5, 0.01% BRIJ-35, 10 mM MgCl2, 1 mM EGTA, 0.02% NaN3. […] After the 1 hour Kinase Reaction incubation, 5 μL of a 1:128 dilution of Development Reagent was added.

[4] = target: TTK (Homo sapiens (Human), UniProt P33981); experiment: TTK enzyme assay (LanthaScreen Eu Kinase Binding); settings: arithmetic mean of two or more experiments
TTK, sequence (P33981 whole entry): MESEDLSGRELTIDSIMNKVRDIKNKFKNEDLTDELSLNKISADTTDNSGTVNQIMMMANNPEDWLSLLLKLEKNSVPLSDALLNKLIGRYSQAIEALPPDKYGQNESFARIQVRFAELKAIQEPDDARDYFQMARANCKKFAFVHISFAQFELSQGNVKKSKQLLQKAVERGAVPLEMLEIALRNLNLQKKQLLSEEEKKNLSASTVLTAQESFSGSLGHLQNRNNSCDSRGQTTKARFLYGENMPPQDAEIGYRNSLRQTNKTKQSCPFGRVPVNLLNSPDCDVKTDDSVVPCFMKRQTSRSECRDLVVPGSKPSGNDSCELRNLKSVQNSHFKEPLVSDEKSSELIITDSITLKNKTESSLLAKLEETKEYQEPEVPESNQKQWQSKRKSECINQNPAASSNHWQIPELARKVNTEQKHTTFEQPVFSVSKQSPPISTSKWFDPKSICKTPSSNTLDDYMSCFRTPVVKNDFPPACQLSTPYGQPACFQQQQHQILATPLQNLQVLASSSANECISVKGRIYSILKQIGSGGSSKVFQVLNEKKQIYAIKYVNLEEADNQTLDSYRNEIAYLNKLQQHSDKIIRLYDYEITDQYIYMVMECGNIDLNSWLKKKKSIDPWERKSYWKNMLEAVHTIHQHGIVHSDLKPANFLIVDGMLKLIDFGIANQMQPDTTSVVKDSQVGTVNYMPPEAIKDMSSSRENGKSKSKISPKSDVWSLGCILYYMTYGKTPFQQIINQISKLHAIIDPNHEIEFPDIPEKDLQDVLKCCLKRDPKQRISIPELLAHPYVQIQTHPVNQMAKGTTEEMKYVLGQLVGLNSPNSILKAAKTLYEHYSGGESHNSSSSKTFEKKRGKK
Method: The inhibitory activity of compounds against TTK was determined in a LanthaScreen® Eu Kinase Binding assay run by ThermoFisher Scientific as part of their SelectScreen® Biochemical Kinase Profiling Service. The LanthaScreen® Eu Kinase Binding assay format uses binding of an Alexa Fluor® conjugate or “tracer” to a kinase, which is detected by addition of a Eu-labeled anti-tag antibody. […] The degree of FRET measured in the assay is used to determine the binding of a compound.
10 point three-fold dilution compound concentration-response curves, with a top concentration of 10 μM were generated from 10 mM stocks of compound solubilised in DMSO. All assays were performed in white, low volume Greiner 384-well plates (cat. #784207, Greiner), in a total reaction volume of 16 μL and 1% (v/v) final DMSO concentration. […] Plates were then read using a fluorescence plate reader. IC50 values were calculated using XLfit software (IDBS Ltd, Surrey, UK), with the curve fit to model number 205 (sigmoidal dose-response model).

[5] = target: AURKA (Aurora A) (Homo sapiens (Human), UniProt O14965); experiment: Aurora-A enzyme assay (Z'-LYTE); assay type: biochemical; settings: 10 μM ATP; arithmetic mean of two or more experiments
AURKA (Aurora A), sequence (O14965 whole entry): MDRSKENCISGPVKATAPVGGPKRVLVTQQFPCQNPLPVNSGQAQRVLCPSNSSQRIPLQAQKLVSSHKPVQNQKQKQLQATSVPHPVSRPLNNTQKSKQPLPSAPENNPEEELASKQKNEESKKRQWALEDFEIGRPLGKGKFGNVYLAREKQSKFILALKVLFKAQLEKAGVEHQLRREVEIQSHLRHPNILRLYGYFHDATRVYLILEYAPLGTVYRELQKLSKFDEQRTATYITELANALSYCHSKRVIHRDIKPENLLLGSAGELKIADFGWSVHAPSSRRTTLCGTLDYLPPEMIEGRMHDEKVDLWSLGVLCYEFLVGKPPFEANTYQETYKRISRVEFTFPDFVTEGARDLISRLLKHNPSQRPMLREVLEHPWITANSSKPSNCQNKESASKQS
Method: as §1, §2
Aurora A (AurA): The 2×AURKA (Aurora A)/Ser/Thr 01 (ThermoFisher Scientific proprietary) mixture was prepared in 50 mM HEPES pH 7.5, 0.01% BRIJ-35, 10 mM MgCl2, 1 mM EGTA. […] After the 1 hour Kinase Reaction incubation, 5 μL of a 1:4096 dilution of Development Reagent was added.

[6] = target: JAK2 (Homo sapiens (Human), UniProt O60674); experiment: JAK2 enzyme assay (Z'-LYTE); assay type: biochemical; settings: 25 μM ATP; arithmetic mean of two or more experiments
JAK2, sequence (O60674 whole entry): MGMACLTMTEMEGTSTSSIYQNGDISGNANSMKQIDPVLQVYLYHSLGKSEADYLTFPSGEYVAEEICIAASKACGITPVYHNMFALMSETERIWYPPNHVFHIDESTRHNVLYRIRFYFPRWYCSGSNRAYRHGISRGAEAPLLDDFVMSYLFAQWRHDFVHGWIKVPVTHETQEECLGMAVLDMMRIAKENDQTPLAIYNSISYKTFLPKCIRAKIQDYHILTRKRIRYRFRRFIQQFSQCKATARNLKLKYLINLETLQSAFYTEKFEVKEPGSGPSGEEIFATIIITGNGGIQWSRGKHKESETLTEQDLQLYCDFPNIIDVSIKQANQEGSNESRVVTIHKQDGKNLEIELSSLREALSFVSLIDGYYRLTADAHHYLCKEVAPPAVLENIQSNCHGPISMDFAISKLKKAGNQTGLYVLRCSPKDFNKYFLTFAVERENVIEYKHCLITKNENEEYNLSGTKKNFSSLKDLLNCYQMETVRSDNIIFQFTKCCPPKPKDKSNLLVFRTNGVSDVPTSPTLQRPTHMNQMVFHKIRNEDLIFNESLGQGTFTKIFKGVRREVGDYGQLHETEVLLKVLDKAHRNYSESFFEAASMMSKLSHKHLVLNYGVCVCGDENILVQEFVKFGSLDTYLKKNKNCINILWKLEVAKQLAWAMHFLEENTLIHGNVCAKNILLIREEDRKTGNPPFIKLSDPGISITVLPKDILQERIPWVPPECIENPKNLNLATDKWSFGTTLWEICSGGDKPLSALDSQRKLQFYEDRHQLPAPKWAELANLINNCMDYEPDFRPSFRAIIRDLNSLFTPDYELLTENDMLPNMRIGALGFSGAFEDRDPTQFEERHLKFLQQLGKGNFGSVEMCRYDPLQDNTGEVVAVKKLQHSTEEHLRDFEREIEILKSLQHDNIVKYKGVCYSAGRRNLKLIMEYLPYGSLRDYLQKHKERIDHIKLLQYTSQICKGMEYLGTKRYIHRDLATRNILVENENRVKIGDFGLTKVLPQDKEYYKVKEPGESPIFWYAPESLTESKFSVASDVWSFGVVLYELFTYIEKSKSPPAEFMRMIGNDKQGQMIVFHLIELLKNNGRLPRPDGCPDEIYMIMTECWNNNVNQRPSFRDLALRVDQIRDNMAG
Method: as §1, §2
JAK2: The 2×JAK2/Tyr 06 (ThermoFisher Scientific proprietary) mixture was prepared in 50 mM HEPES pH 7.5, 0.01% BRIJ-35, 10 mM MgCl2, 1 mM EGTA. […] After the 1 hour Kinase Reaction incubation, 5 μL of a 1:128 dilution of Development Reagent was added.

[7] = target: AURKB (Aurora B) (Homo sapiens (Human), UniProt Q96GD4); experiment: Aurora-B enzyme assay (Z'-LYTE); assay type: biochemical; settings: 75 μM ATP; arithmetic mean of two or more experiments
AURKB (Aurora B), sequence (Q96GD4 whole entry): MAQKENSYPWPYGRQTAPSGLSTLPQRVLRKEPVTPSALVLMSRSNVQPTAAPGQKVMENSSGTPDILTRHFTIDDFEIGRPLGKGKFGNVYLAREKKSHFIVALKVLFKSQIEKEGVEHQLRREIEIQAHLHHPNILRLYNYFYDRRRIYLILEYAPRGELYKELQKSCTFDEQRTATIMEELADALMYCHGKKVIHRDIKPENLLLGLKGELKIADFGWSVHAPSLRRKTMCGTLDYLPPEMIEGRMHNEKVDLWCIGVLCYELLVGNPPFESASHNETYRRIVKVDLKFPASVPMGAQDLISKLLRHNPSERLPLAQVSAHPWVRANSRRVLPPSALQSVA
Method: as §1, §2
Aurora B (AurB): The 2×AURKB (Aurora B)/Ser/Thr 01 (ThermoFisher Scientific proprietary) mixture was prepared in 50 mM HEPES pH 7.5, 0.01% BRIJ-35, 10 mM MgCl2, 1 mM EGTA. […] After the 1 hour Kinase Reaction incubation, 5 μL of a 1:4096 dilution of Development Reagent was added.

[8] = Discrete PK Dog; settings: beagle, iv, 0.5 mg/kg
[9] = Discrete PK Rat; assay type: in vivo, han wistar rats; settings: Han Wistar, plasma, iv, read-out: volume of distribution (V)

Row | SMILES | IC50 [1] [nM] | JAK3 enz pIC50 [2] | JAK1 enz pIC50 [3] | TTK enz pIC50 [4] | AurA enz pIC50 [5] | JAK2 enz pIC50 [6] | AurB enz pIC50 [7] | other results
1 | Cc1cc2ncccc2cc1Nc1ncc2c(n1)n([C@H]1CC[C@@](C)(O)CC1)c(=O)n2C [Example 14, 9-((1s,4s)-4-hydroxy-4-methylcyclohexyl)-7-methyl-2-((7-methylquinolin-6-yl)amino)-7,9-dihydro-8H-purin-8-one] | 10 | – | – | – | – | – | – | –
2 | Cc1cc2ncccc2cc1Nc1ncc2c(n1)n([C@H]1CC[C@](C)(O)CC1)c(=O)n2C [Example 15, 9-((1r,4r)-4-hydroxy-4-methylcyclohexyl)-7-methyl-2-((7-methylquinolin-6-yl)amino)-7,9-dihydro-8H-purin-8-one] | 15.8 | – | – | – | – | – | – | –
3 | Cc1cc2nnccc2cc1Nc1ncc2c(n1)n([C@H]1CC[C@@](C)(O)CC1)c(=O)n2C [Example 16, 9-((1s,4s)-4-hydroxy-4-methylcyclohexyl)-7-methyl-2-((7-methylcinnolin-6-yl)amino)-7,9-dihydro-8H-purin-8-one] | 15.8 | – | – | – | – | – | – | –
4 | Cc1cc2nnccc2cc1Nc1ncc2c(n1)n([C@H]1CC[C@](C)(O)CC1)c(=O)n2C [Example 17, 9-((1r,4r)-4-hydroxy-4-methylcyclohexyl)-7-methyl-2-((7-methylcinnolin-6-yl)amino)-7,9-dihydro-8H-purin-8-one] | 100 | – | – | – | – | – | – | –
5 | Cc1cc2nnccc2cc1Nc1ncc2c(n1)n(C1CCOCC1)c(=O)n2C [Example 29, 7-methyl-2-((7-methylcinnolin-6-yl)amino)-9-(tetrahydro-2H-pyran-4-yl)-7,9-dihydro-8H-purin-8-one] | – | <5 | <5 | 6.4 | <5 | <5 | <5 | –
6 | Cc1cc2ncccc2cc1Nc1ncc2c(n1)n(C1CCOCC1)c(=O)n2C [Example 30, 7-methyl-2-((7-methylquinolin-6-yl)amino)-9-(tetrahydro-2H-pyran-4-yl)-7,9-dihydro-8H-purin-8-one] | – | <5 | <5 | 6.4 | <5 | <5 | <5 | –
7 | Cc1cc2ncccc2cc1Nc1ncc2c(n1)n([C@@H]1CCN(C)C1)c(=O)n2C [Example 41, (R)-7-methyl-9-(1-methylpyrrolidin-3-yl)-2-((7-methylquinolin-6-yl)amino)-7,9-dihydro-8H-purin-8-one] | – | <5 | <5 | <5.1 | <5 | <5 | <5 | –
8 | Cc1cc2ncccc2cc1Nc1ncc2c(n1)n([C@H]1CCN(C)C1)c(=O)n2C [Example 42, (S)-7-methyl-9-(1-methylpyrrolidin-3-yl)-2-((7-methylquinolin-6-yl)amino)-7,9-dihydro-8H-purin-8-one] | – | <5 | <5 | <5.1 | <5 | <5 | <5 | –
9 | Cc1cc2nnccc2cc1Nc1ncc2c(n1)n(C1CCN(C)CC1)c(=O)n2C [Example 43, 7-methyl-2-((7-methylcinnolin-6-yl)amino)-9-(1-methylpiperidin-4-yl)-7,9-dihydro-8H-purin-8-one] | – | <5 | <5 | <5 | <5 | <5 | <5 | –
10 | Cc1cc2ncccc2cc1Nc1ncc2c(n1)n(C1CCN(C)CC1)c(=O)n2C [Example 44, 7-methyl-9-(1-methylpiperidin-4-yl)-2-((7-methylquinolin-6-yl)amino)-7,9-dihydro-8H-purin-8-one] | – | – | – | – | – | – | – | Vd ([8]; plasma): 7.8 L/kg; Vd [9]: 3.4 L/kg
11 | Cc1cc2ncccc2cc1Nc1ncc2c(n1)n([C@@H]1CNC[C@H]1F)c(=O)n2C [Example 52, 9-((3R,4R)-4-fluoropyrrolidin-3-yl)-7-methyl-2-((7-methylquinolin-6-yl)amino)-7,9-dihydro-8H-purin-8-one] | – | – | – | – | – | – | – | Vd ([8]; in vivo): 5.4 L/kg; Vd [9]: 1.65 L/kg
